# Laboratory results as given in US8173771B2, “Humanin receptor or humanin-like polypeptide receptor” (Keio Univeristy, priority 2005, dated 2012).
# Peptide text beside a SMILES is read from it.
# Columns and labels:
# [1] = target: T1, human WSX-1, human CNTF receptor and human gp130 overexpressed in F11 cells (Homo sapiens, UniProt Q6UWB1); experiment: Immunofluorescence-based HN binding assay (1) after ectopic overexpression of receptor genes in F11 cells; settings: large amount (10 μM) of non-labeled peptide
# T1 construct: His; V5 (C); expressed in transfected cells; host or cells: F11 cells
# T1 sequence (Q6UWB1 33-636): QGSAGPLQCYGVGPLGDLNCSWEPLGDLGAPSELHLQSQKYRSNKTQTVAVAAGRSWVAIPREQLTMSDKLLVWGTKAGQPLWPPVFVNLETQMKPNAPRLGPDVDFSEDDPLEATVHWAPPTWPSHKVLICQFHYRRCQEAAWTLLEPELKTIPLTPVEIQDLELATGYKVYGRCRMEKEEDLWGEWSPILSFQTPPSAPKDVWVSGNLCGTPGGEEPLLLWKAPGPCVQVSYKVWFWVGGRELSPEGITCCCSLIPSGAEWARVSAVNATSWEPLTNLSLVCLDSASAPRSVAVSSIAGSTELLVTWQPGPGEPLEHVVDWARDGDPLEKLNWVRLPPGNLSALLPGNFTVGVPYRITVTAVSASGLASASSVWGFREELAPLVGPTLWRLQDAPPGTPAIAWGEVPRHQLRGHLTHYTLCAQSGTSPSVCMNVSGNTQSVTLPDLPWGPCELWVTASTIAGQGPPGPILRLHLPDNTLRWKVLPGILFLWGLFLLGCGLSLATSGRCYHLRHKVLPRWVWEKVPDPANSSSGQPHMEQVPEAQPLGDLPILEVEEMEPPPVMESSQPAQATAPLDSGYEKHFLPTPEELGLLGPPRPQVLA
# T1 sequence (P40189 23-918 partner): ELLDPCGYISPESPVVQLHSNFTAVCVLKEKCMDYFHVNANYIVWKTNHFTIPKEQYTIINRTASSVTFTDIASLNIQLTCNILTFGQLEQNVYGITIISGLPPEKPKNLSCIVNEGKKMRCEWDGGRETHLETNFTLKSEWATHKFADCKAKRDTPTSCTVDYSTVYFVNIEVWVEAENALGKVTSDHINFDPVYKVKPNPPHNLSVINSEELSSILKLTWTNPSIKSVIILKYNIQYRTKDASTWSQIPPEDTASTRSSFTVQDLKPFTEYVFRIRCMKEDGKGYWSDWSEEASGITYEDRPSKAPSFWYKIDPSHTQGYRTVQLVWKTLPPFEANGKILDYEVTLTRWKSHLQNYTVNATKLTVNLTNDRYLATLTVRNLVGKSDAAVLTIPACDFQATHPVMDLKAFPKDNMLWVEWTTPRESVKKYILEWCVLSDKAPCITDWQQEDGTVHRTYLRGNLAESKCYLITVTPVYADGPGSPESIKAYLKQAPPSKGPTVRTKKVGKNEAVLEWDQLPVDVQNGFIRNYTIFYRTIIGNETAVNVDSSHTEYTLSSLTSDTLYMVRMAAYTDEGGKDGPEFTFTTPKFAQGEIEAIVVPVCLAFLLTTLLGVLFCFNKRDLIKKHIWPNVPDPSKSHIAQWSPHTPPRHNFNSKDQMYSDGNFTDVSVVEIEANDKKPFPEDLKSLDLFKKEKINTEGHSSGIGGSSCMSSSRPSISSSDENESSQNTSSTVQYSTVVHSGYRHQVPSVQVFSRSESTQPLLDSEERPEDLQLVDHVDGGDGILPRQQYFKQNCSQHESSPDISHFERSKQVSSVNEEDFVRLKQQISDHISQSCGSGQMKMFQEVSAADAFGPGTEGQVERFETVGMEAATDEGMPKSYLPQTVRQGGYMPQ
# Method: A) F11 cells were transfected with 0.5 μg of the pEF/BOS vector, pEF-mycHis CREME9, pEF-mycHishuman WSX-1, or pEF-V5-human CNTF-R in association with 0.5 μg of pCAG-human gp130, or transfected with 0.5 μg of pEF-mycHis human WSX-1 and pEF-V5-human CNTF-R and pCAG-human gp130. To keep the total amounts of transfected vectors to be 1.5 μg, an appropriate amount of the pEFBOS vector was added. The graphs show the results of a binding amount of the biotin-labeled HN to each transfected cell by the detection of immunofluorescence reaction. The protein expression by immunoblot analysis is shown below in photos.
# B) F11 cells were transfected with 0.5 μg of pEF-myc His human CREME9 or pEF-mycHis human WSX-1 in association with 0.5 μg of pCAG-human gp130. For competition, 10 μM of non-labeled (cold) HNG or HNA was added for some experiments. Fluorescence signals were detected with a laser-scanning, confocal microscope LSM (Carl Zeiss, Germany) (right panels).
# F11 cells (7×10^4/well in 6-well plates) were replated into 96-well plates (7×10^3 cells/well) at 24 hrs after transfection with indicated amounts of the plasmids encoding mycHis-WSX or V5-CNTF-R, and with PCAG-human gp130 if required. […] Immunofluorescence intensity was measured (excitation=485 nm, emission=535 nm) with a spectrofluorometer (Wallac1420 ARVOsx Multi Label Counter). […]
# [2] = test system: neuronal cell death by AD-related insults; settings: cited from earlier work
effect of unlabeled peptide on binding of HN to cells expressing WSX-1 and gp130 [1],Molecule,HN activity of the mutant ([2]; negative control),potency relative to HN [2]
not,C8A-Humanin (MAPRGFSALLLLTSEIDLPVKRRA) [HNA],null activity,
nullified,"CC[C@H](C)[C@H](NC(=O)[C@H](CCC(=O)O)NC(=O)CNC(=O)[C@@H](NC(=O)[C@H](CC(C)C)NC(=O)[C@H](CC(C)C)NC(=O)[C@H](CC(C)C)NC(=O)[C@H](CC(C)C)NC(=O)[C@H](CS)NC(=O)[C@H](CO)NC(=O)[C@H](Cc1ccccc1)NC(=O)CNC(=O)[C@H](CCCNC(=N)N)NC(=O)[C@@H]1CCCN1C(=O)[C@H](C)NC(=O)[C@@H](N)CCSC)[C@@H](C)O)C(=O)N[C@@H](CC(=O)O)C(=O)N[C@@H](CC(C)C)C(=O)N1CCC[C@H]1C(=O)N[C@H](C(=O)N[C@@H](CCCCN)C(=O)N[C@@H](CCCNC(=N)N)C(=O)N[C@@H](CCCNC(=N)N)C(=O)N[C@@H](C)C(=O)O)C(C)C [HNG, S14 G-Humanin] (H-MAPRGFSCLLLLTGEIDLPVKRRA-OH; N-terminus and C-terminus assumed)",,1000 fold
